In paper PMC10375898 (2023):

Tests used:
[1] = system: r(CUG)10 (RNA, repeat) CUGCUGCUGCUGCUGCUGCUGCUGCUGCUG; test: competitive Chem-CLIP; settings: competes with 50 μM of 1; 0 to 500 μM
[2] = system: 5'-(GACAGCUGCUGUC)2-3' duplex (single 5'CUG/3'GUC) (RNA, mismatch bulge abasic) GACAGCUGCUGUC; test: To-Pro-1 dye displacement (fluorescence); settings: Na+ 200 mM NaCl, 8 mM NaH2PO4; To-Pro-1 (100 nM) displaced; Kd from competitive fit (Ki)
[3] = system: 5'-(GACAGCUGCUGUC)2-3' duplex (single 5'CUG/3'GUC) (RNA, mismatch bulge abasic) GACAGCUGCUGUC; test: NMR (WaterLOGSY, 1D 1H imino and aromatic); settings: 10 mM Na2HPO4/NaH2PO4, pH 6.0, 0.05 mM EDTA
[4] = system: 5'-(GACAGCUGCUGUC)2-3' duplex (single 5'CUG/3'GUC) (RNA, mismatch bulge abasic) GACAGCUGCUGUC; test: fluorescence titration; settings: Na+ 200 mM NaCl; 8 mM NaH2PO4, pH 7.0, 1 mM EDTA, 40 µg/mL BSA, room temperature; 100 nM dye
[5] = system: r(CUG)10 (RNA, repeat) CUGCUGCUGCUGCUGCUGCUGCUGCUGCUG; test: in vitro Chem-CLIP (photo-cross-linking pull-down); settings: covalent; 26 ± 7% pulled down at 100 μM
[6] = system: r(CUG)8 with GAAA hairpin loop (RNA, repeat) CCGCUGCUGCUGCUGCGAAAGCUGCUGCUGCUGCGG; test: in vitro Chem-CLIP (photo-cross-linking pull-down); settings: covalent; 100 μM

Row | binding [1] | Kd [2] [nM] | binding [3] | Kd [4] [nM] | binding [5] | binding [6] | SMILES
1 | yes | 1400 ± 300 | yes | – | – | – | CCC(=O)NC1=Nc2cccc3cccc(c23)N1
2 | – | – | – | 31 ± 2 | – | – | C[n+]1c(C=C2C=CN(CCC[N+](C)(C)C)c3ccccc32)sc2ccccc21
3 | – | 1200 ± 200 | – | – | yes | yes | C#CCCC1(CCC(=O)NC2=Nc3cccc4cccc(c34)N2)N=N1
